{"source": "patent EP4768477A1", "about": "(Yichang Humanwell Pharmaceutical Co., Ltd., priority 2024, dated 2025)", "key": {"[1]": {"tested_on": "formalin-induced inflammatory pain model", "parameters": "species or system SD rats", "conditions": "rat, in vivo"}, "[2]": {"tested_on": "gastrointestinal peristalsis", "assay": "Effect on gastrointestinal peristalsis (charcoal propulsion)", "conditions": "3 mg/kg, single subcutaneous injection, SD rats"}, "hKOR": {"target": "T1, hKOR (Homo sapiens, UniProt P41145)", "T1 construct": "expressed in transfected cells; host or cells: Human embryonic kidney cells 293 (293-KOR)", "T1 sequence (P41145 whole entry)": "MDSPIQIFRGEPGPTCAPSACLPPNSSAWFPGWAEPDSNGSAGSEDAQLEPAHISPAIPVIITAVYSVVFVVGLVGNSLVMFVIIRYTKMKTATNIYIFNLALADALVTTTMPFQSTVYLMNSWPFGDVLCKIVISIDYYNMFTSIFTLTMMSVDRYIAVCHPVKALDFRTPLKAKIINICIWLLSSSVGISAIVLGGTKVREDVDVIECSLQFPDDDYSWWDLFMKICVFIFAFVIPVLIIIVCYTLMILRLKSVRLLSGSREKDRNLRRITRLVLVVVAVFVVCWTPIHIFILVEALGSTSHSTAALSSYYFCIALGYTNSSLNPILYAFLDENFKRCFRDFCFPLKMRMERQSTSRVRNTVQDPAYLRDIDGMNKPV", "assay": "Agonistic function, cAMP method, 293-KOR cells", "format": "cell-based", "conditions": "forskolin", "experimental": "• a. […] Prepare 8 × drug-containing solution with buffe. • c. […] Incubate for 1 h at room temperature. • j."}}, "note": "Where no end group is shown, it is not given here.", "data": [{"compound": "CN1CC[C@]23c4c5ccc(O)c4O[C@H]2[C@@H](O)C=C[C@H]3[C@H]1C5", "note": "[Morphine]", "values": [{"measurement": "MPE%", "setting": "[1]", "result": "75.9±28.9", "unit": "%"}, {"measurement": "effect on the gastrointestinal peristalsis in rats (charcoal propulsion rate)", "setting": "[2]", "result": "significant inhibitory effect"}]}, {"compound": "YGGFLRRIRP [Dynorphin A1-10]", "values": [{"measurement": "EC50", "setting": "hKOR", "result": 0.65, "unit": "nM"}, {"measurement": "Emax", "setting": "hKOR", "result": 102, "unit": "%"}]}]}
